Results on 5 compounds are retold here after publication PMC4900804, “Allosteric modulation in monomers and oligomers of a G protein-coupled receptor” (eLife, 2016).

Assay [1] deals with T1, eGFP-M2 solubilized in digitonin–cholate (Homo sapiens, UniProt P08172).
T1 sequence (P08172 1-466): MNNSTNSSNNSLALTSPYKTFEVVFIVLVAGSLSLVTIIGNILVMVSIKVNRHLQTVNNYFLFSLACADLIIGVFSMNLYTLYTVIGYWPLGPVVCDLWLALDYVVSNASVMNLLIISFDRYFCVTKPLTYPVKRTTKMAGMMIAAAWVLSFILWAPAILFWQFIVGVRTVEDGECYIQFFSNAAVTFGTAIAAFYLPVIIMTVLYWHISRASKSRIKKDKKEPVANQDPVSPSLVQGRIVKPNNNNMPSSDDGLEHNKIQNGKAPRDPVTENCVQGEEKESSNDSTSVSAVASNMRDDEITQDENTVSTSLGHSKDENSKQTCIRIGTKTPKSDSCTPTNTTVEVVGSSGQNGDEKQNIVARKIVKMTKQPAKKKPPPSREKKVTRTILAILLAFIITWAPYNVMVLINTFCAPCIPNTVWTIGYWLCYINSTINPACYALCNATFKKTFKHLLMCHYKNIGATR
Put plainly: Time-resolved fluorescence and fluorescence anisotropy of eGFP-tagged M2 receptor. The following applies: eGFP-M2 + carbachol 1 mM. For orientation: Fluorescence polarisation rises when a labelled molecule tumbles more slowly, as on binding a larger partner.

Assay [2] concerns the target T2, FlAsH-reacted mCh-M2-FCM in CHO cells (Homo sapiens, UniProt P08172, INS166FLNCCPGCCMEP).
T2 sequence (P08172 with tags, fused parts or gaps): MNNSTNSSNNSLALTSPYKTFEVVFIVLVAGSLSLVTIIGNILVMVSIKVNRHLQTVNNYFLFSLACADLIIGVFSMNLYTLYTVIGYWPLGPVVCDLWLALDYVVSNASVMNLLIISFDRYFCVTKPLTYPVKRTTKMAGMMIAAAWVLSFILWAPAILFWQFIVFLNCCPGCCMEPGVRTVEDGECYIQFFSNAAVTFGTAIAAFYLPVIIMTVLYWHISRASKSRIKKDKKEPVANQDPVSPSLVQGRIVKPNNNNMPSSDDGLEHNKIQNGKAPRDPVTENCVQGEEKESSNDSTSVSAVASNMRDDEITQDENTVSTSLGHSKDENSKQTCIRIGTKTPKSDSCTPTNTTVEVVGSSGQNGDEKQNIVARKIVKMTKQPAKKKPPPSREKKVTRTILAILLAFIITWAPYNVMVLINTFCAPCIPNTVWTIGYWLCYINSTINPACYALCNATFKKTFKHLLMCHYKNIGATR
The experiment in a line: FRET between FlAsH and mCherry in the sensor, ligand-dependent change in Eapp. As to conditions: ligand 1 mM. In kind it is cell-based.

Assay [3] relates to M2 receptor in Sf9 membranes. The following applies: cited from earlier work.
Assay [4] has as its target T3, M2 receptor monomers purified from Sf9 cells (Homo sapiens, UniProt P08172).
T3 sequence (P08172 1-466): T1 sequence (P08172 1-466)
The experiment in a line: Effect of allosteric modulators on the binding of [3H]NMS to purified monomers.

The target in assay [5] is T4, copurified heteromer of M2-ECL2+ve and M2-D103A (Homo sapiens, UniProt P08172, D103A/D173R/E172K/E175K).
T4 construct: hexahistidine (His6) (N); made in house; host or cells: co-transfected CHO cells; purified on Ni2+-NTA and anti-FLAG resins
T4 sequence (P08172 1-466 E172K/D173R/E175K): T1 sequence (P08172 1-466) with E172K, D173R, E175K
T4 sequence (P08172 1-466 D103A): T1 sequence (P08172 1-466) with D103A
The experiment in a line: Effect of gallamine on the binding of [3H]NMS to purified hetero-oligomers. The following applies: [3H]NMS 10 nM; 21 hr at 30°C.

For assay [6], the target named is T3, M2 receptor monomers purified from Sf9 cells. The format is binding.
Assay [7] addresses M2 receptors extracted from porcine sarcolemmal membranes (Sus scrofa, UniProt P06199).
Assay [8] has as its target M2 receptor in membranes from CHO cells (Homo sapiens, UniProt P08172).
In assay [9] the test system is M2 receptors (alanine for aspartic acid at position 103) in HEK293 membranes. The following applies: cited from earlier work.
The target in assay [10] is mCh-M2(D103A)-FCM (human) (UniProt P08172).
Setting [11] is: gallamine, [3H]NMS 10 nM, 21 h at 30 °C, n = 1.

Residue numbers refer to the chain shown, from its start. Where “and” joins values, the source holds several entries; their conditions need not be identical. Equal entries are not always repeated. Where two headings read alike, the source gives them in different places.

M2 receptors extracted from porcine sarcolemmal membranes, sequence (P06199 whole entry): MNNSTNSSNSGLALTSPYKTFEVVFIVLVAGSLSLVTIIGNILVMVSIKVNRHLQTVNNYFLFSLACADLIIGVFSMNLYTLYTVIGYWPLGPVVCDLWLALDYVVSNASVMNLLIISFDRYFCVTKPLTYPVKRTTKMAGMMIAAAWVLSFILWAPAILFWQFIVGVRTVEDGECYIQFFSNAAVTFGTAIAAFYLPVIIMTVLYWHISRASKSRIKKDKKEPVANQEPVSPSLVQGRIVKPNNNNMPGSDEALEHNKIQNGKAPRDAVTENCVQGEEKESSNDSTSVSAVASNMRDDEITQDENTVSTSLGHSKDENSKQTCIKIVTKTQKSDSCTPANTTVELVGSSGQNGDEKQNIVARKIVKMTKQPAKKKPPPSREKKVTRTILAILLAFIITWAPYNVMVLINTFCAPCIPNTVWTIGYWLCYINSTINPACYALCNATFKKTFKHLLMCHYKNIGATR

Consider `C[N+](C)(C)CCOC(N)=O` [carbachol], for which, in assay [1], the “Fluorescence lifetime (τ)” value is 2.5 ± 0.1 ns and the “Rotational correlation time (φ)” value is listed as 43 ± 5 ns. In addition, the “∆Eapp, mean change in FRET efficiency ± S.D.” value in assay [2] is −21.6 ± 11.2%.

Take `CC[N+](CC)(CC)CCOc1cccc(OCC[N+](CC)(CC)CC)c1OCC[N+](CC)(CC)CC` [gallamine]: in [3], the “log K1 (Equation 2), dose-dependence of kobsd/k0” value was −5.99 ± 0.31 and the “log K2 (Equation 2), dose-dependence of kobsd/k0” value is −4.35 ± 0.03. In addition, in assay [4] (setting [11]), the F1 is reported as 1.00 and the “nH(1)” value stood at 1.00 ± 0.06. The “log K2 (Equation 2, n = 3)” value in assay [5] worked out at 4.29 ± 0.37. Besides, in assay [6], the F1 was 1.00.

Consider `O=C1C[C@@H]2OCC=C3CN4CC[C@]56c7ccccc7N1[C@H]5[C@H]2[C@H]3C[C@H]46` [strychnine], for which, in assay [7], the F2 was 1.57 and 2. Besides, in [8], the F2 is on record as 2.21 ± 0.16; the “nH(1)” value was 0.72 ± 0.06 and 0.98 ± 0.14 and 1.20 ± 0.07; the “nH(2)” value was 1.44 ± 0.09 and 1.07 ± 0.08. In assay [4], the F1 turned out to be 1.00; the “nH(1)” value was 0.62 ± 0.07 and 1.23 ± 0.07.

In the case of N-[^3H]methylscopolamine [[^3H]NMS], the “specific binding of radioligand” value in assay [9] is “prevent the specific binding”.

As for “eGFP-M2 (from UniProt P08172 1-466) (receptor)”, the NMS (1 μM)-dependent increase in the FRET efficiency between FlAsH and mCherry of the binding-deficient sensor in CHO cells that display eGFP, FlAsH and mCherry (percentage points) in [10] was found to be 5.3.
